Results from PMC7762786, “The discovery of novel antitrypanosomal 4-phenyl-6-(pyridin-3-yl)pyrimidines” (European Journal of Medicinal Chemistry, 2021).

System: L6 cells (rat skeletal myoblasts)
Experiment: In vitro cytotoxicity with L6 cells, Alamar Blue assay
Format: cell-based
Conditions: not given
Protocol: (§1) In vitro cytotoxicity with L6 cells (a […] cell line derived from rat skeletal myoblasts) were performed in 96-well microtiter plates with each well containing 100 μl of RPMI 1640 medium supplemented with 1% L-glutamine (200 mM) and 10% fetal bovine serum and 4000 L6 cells. Serial drug dilutions from 100 to 0.002 μg/mL were prepared and after 70 h of incubation the plates were microscopically inspected to ensure the validity of control wells and sterile conditions. Then, 10 μl of Alamar Blue was added to each well and the plates incubated for an additional 2 h. Plates were read with a Spectramax Gemini XS microplate fluorometer (Molecular Devices Cooperation, Sunnyvale, CA, USA) using an excitation wave length of 536 nm and an emission wave length of 588 nm.

| Molecule | CC50 [µM] |
| --- | --- |
| 4-(2-Methoxyphenyl)-6-(pyridin-4-yl)pyrimidin-2-amine [Compound 25] | > 70 |
| 4-(2-Methoxyphenyl)-6-(pyridin-2-yl)pyrimidin-2-amine [Compound 23] | > 100 |
| 4-(2-Methoxyphenyl)-6-(pyridin-4-yl)pyrimidine [Compound 24] | > 100 |

System: not listed separately
Experiment: as above
Format: cell-based, rat
Conditions: L6 cells (rat skeletal myoblasts); L6 rat skeletal myoblasts, 70 h incubation
Protocol: as §1

| Molecule | CC50 at 70 h [µM] |
| --- | --- |
| c1cncc(-c2cc(-c3ccc4c(c3)OCO4)ncn2)c1 [Compound 10, 4-(2H-1,3-benzodioxol-5-yl)-6-(pyridin-3-yl)pyrimidine] | > 100 |
| Nc1nc(-c2cccnc2)cc(-c2ccc3c(c2)OCO3)n1 [Compound 21, 4-(2H-1,3-benzodioxol-5-yl)-6-(pyridin-3-yl)pyrimidin-2-amine] | > 100 |

Same assay, conditions: L6 rat skeletal myoblasts, 70 h incubation

| Molecule | CC50 at 70 h [µM] |
| --- | --- |
| COc1cc([C@@H]2c3cc4c(cc3[C@H](O)[C@H]3COC(=O)[C@H]23)OCO4)cc(OC)c1OC [Podophyllotoxin, reference compound] | 0.019 |

System: not given
Experiment: not given
Conditions: not given

| melting point [°C] | Molecule |
| --- | --- |
| 163 to 165 | COc1ccc(-c2cc(-c3cccnc3)nc(N)n2)cc1 [Compound 18, 4-(4-Methoxyphenyl)-6-(pyridin-3-yl)pyrimidin-2-amine] |
| 193 to 195 | Fc1cccc(-c2cc(-c3cccnc3)ncn2)c1 [Compound 7, 4-(3-Fluorophenyl)-6-(pyridin-3-yl)pyrimidine] |
| 102 to 104 | COc1ccccc1-c1cc(-c2cccnc2)ncn1 [Compound 3, 4-(2-Methoxyphenyl)-6-(pyridin-3-yl)pyrimidine] |
| 173 to 175 | c1cncc(-c2cc(-c3ccc4c(c3)OCO4)ncn2)c1 [Compound 10, 4-(2H-1,3-benzodioxol-5-yl)-6-(pyridin-3-yl)pyrimidine] |
| 172 to 175 | Nc1nc(-c2ccccc2)cc(-c2cccnc2)n1 [Compound 11, 4-Phenyl-6-(pyridin-3-yl)pyrimidin-2-amine] |
| 210 to 211 | Nc1nc(-c2ccc(Br)cc2)cc(-c2cccnc2)n1 [Compound 19, 4-(4-Bromophenyl)-6-(pyridin-3-yl)pyrimidin-2-amine] |
| 124 to 125 | COc1cccc(-c2cc(-c3cccnc3)ncn2)c1 [Compound 5, 4-(3-Methoxyphenyl)-6-(pyridin-3-yl)pyrimidine] |
| 165 to 167 | COc1ccc(-c2cc(-c3cccnc3)nc(N)n2)cc1OC [Compound 20, 4-(3,4-Dimethoxyphenyl)-6-(pyridin-3-yl)pyrimidin-2-amine] |
| 165 to 167 | COc1ccc(-c2cc(-c3cccnc3)ncn2)cc1 [Compound 8, 4-(4-Methoxyphenyl)-6-(pyridin-3-yl)pyrimidine] |
| 116 to 118 | c1ccc(-c2cc(-c3cccnc3)ncn2)cc1 [Compound 1, 4-Phenyl-6-(pyridin-3-yl)pyrimidine] |
| 162 to 164 | COc1cccc(-c2cc(-c3cccnc3)nc(N)n2)c1 [Compound 15, 4-(3-Methoxyphenyl)-6-(pyridin-3-yl)pyrimidin-2-amine] |
| 162 to 163 | Brc1cccc(-c2cc(-c3cccnc3)ncn2)c1 [Compound 6, 4-(3-Bromophenyl)-6-(pyridin-3-yl)pyrimidine] |
| 236 to 238 | Nc1nc(-c2cccnc2)cc(-c2ccc3c(c2)OCO3)n1 [Compound 21, 4-(2H-1,3-benzodioxol-5-yl)-6-(pyridin-3-yl)pyrimidin-2-amine] |
| 196 to 198 | Nc1nc(-c2cccnc2)cc(-c2cccc(F)c2)n1 [Compound 17, 4-(3-Fluorophenyl)-6-(pyridin-3-yl)pyrimidin-2-amine] |
| 206 to 207 | c1cncc(-c2cc(-c3cccnc3)ncn2)c1 [Compound 2, 4,6-Bis(Pyridin-3-yl)pyrimidine] |
| 229 to 230 | Nc1nc(-c2cccnc2)cc(-c2cccnc2)n1 [Compound 12, 4,6-Bis(Pyridin-3-yl)pyrimidin-2-amine] |
| 169 to 171 | Nc1nc(-c2cccnc2)cc(-c2cccc(Br)c2)n1 [Compound 16, 4-(3-Bromophenyl)-6-(pyridin-3-yl)pyrimidin-2-amine] |
| 131 to 134 | COc1ccc(-c2cc(-c3cccnc3)ncn2)cc1OC [Compound 9, 4-(3,4-Dimethoxyphenyl)-6-(pyridin-3-yl)pyrimidine] |
| 149 to 152 | Nc1nc(-c2cccnc2)cc(-c2ccccc2Br)n1 [Compound 14, 4-(2-Bromophenyl)-6-(pyridin-3-yl)pyrimidin-2-amine] |

System: Trypanosoma brucei rhodesiense STIB900 (bloodstream trypomastigotes)
Experiment: In vitro antitrypanosomal activity, Alamar Blue assay
Format: cell-based
Conditions: 70 h, STIB900 bloodstream forms, 70 h incubation, read-out: IC50 T. b. rhodesiense
Protocol: Assays were performed as described by Bernal et al.. In vitro antitrypanosomal activities of compounds were determined against Trypanosoma brucei rhodesiense STIB900 (bloodstream trypomastigotes) where the parasitic stock was isolated in 1982 from a human patient in Tanzania. […] Then, 10 μl of Alamar Blue (resazurin, 12.5 mg in 100 mL double-distilled water) was added to each well and incubation continued for a further 2–4 h. Plates were read with a Spectramax Gemini XS microplate fluorometer (Molecular Devices Cooperation, Sunnyvale, CA, USA) using an excitation wavelength of 536 nm and an emission wavelength of 588 nm.

| IC50 [µM] | Molecule |
| --- | --- |
| 6.7 | c1cncc(-c2cc(-c3ccc4c(c3)OCO4)ncn2)c1 [Compound 10, 4-(2H-1,3-benzodioxol-5-yl)-6-(pyridin-3-yl)pyrimidine] |
| 12.9 | Nc1nc(-c2cccnc2)cc(-c2ccc3c(c2)OCO3)n1 [Compound 21, 4-(2H-1,3-benzodioxol-5-yl)-6-(pyridin-3-yl)pyrimidin-2-amine] |
